Experimental findings from US8163793B2, “Proline derivatives” (Hoffman-La Roche Inc., priority 2009, dated 2012) are described below.

For one test, the target named is Cathepsin S (UniProt P25774). As to the kind of experiment: Cathepsin enzyme inhibition assay (fluorogenic peptide substrate Z-Val-Val-Arg-AMC), Cathepsin S. It counts as biochemical, human and mouse. The settings on record: enzyme 1 nM, substrate 20 μM, pH 6.5; read-out: CatS IC50. In outline: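 Human or mouse cathepsin S (1 nM) was run in 100 mM potassium phosphate pH 6.5 with 5 mM EDTA, 0.001% Triton X-100 and 5 mM DTT. The rise in AMC fluorescence from cleavage was measured, and IC50 values were calculated by standard methods and expressed in μM.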

For the next test, the target named is Cat L (UniProt P07711). As to the kind of experiment: Cathepsin enzyme inhibition assay (fluorogenic peptide substrate Z-Val-Val-Arg-AMC), Cathepsin L. It counts as biochemical, human and mouse. The settings on record: enzyme 1 nM, substrate 20 μM, pH 6.5; read-out: CatL IC50. The gist of the method: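 Cathepsin L at 1 nM was mixed with compound, then started with 20 μM Z-Val-Val-Arg-AMC in pH 6.5 potassium phosphate with EDTA, Triton X-100 and 5 mM DTT. AMC fluorescence (ex 360/em 465 nm) was followed over 20 min. IC50 is given in μM.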

As for `N#CC1(NC(=O)[C@@H]2C[C@@H](S(=O)(=O)c3ccc(N4CCN5CCC[C@H]5C4)cc3Cl)CN2C(=O)C2(c3ccc(Cl)nc3)CC2)CC1` [Example 373, (2S,4R)-4-((S)-2-Chloro-4-hexahydro-pyrrolo[1,2-a]pyrazin-2-yl-benzenesulfonyl)-1-[1-(6-chloro-pyridin-3-yl)-cyclopropanecarbonyl]-pyrrolidine-2-carboxylic acid (1-cyano-cyclopropyl)-amide; Compound with Formic Acid], the results for the IC50 on Cathepsin S and at Cat L were 0.08 nM and 42.7 nM, respectively.
The like results for `N#CC1(NC(=O)[C@@H]2C[C@@H](S(=O)(=O)c3ccc(N4CCN(C5CC5)CC4)cc3Cl)CN2C(=O)C2(c3ccc(Cl)nc3)CC2)CC1` [Example 374, (2S,4R)-4-[2-Chloro-4-(4-cyclopropyl-piperazin-1-yl)-benzenesulfonyl]-1-[1-(6-chloro-pyridin-3-yl)-cyclopropanecarbonyl]-pyrrolidine-2-carboxylic acid (1-cyano-cyclopropyl)-amide; Compound with Formic Acid] were, in that order, 0.07 nM and 50.3 nM.
As for `COc1ccc(S(=O)(=O)[C@@H]2C[C@@H](C(=O)NC3(C#N)CC3)N(c3cc(C)nn3C3CCC3)C2)c(Cl)c1` [Example 375, (2S,4R)-4-(2-Chloro-4-methoxy-benzenesulfonyl)-1-(2-cyclobutyl-5-methyl-2H-pyrazol-3-yl)-pyrrolidine-2-carboxylic acid (1-cyano-cyclopropyl)-amide], the IC50 (as a rule, the point on the concentration scale where inhibition reaches its midpoint) at Cathepsin S is 0.29 nM; on Cat L, 5370 nM.
The like results for `COc1ccc(S(=O)(=O)[C@@H]2C[C@@H](C(=O)NC3(C#N)CC3)N(c3cc(C)nn3Cc3ccccc3)C2)c(Cl)c1` [Example 376, (2S,4R)-1-(2-Benzyl-5-methyl-2H-pyrazol-3-yl)-4-(2-chloro-4-methoxy-benzenesulfonyl)-pyrrolidine-2-carboxylic acid (1-cyano-cyclopropyl)-amide] were, in that order, 0.657 nM and 1760 nM.
Turning to `COCCOc1ccc(S(=O)(=O)[C@@H]2CC(C(=O)NC3(C#N)CC3)N(C(=O)C3(c4ccc(Cl)nc4)CC3)C2)c(Cl)c1` (stereo partly drawn) [Example 378, (R)-4-[2-Chloro-4-(2-methoxy-ethoxy)-benzenesulfonyl]-1-[1-(6-chloro-pyridin-3-yl)-cyclopropanecarbonyl]-pyrrolidine-2-carboxylic acid (1-cyano-cyclopropyl)-amide], the values for the IC50 at Cathepsin S and at Cat L were 0.1 nM and 200 nM, respectively.
In the case of `Cc1cc(N2C[C@H](S(=O)(=O)c3ccccc3Cl)C[C@H]2C(=O)NC2(C#N)CC2)n(Cc2ccccc2)n1` [Example 379, (2S,4R)-1-(2-Benzyl-5-methyl-2H-pyrazol-3-yl)-4-(2-chloro-benzenesulfonyl)-pyrrolidine-2-carboxylic acid (1-cyano-cyclopropyl)-amide], the IC50 at Cathepsin S worked out at 1.75 nM; at Cat L, 2710 nM.
Taken in the same sequence, the figures for `N#CC1(NC(=O)[C@@H]2C[C@@H](S(=O)(=O)c3ccc(-n4cccn4)cc3Cl)CN2C(=O)C2(c3ccc(Cl)nc3)CC2)CC1` [Example 380, (2S,4R)-4-(2-Chloro-4-pyrazol-1-yl-benzenesulfonyl)-1-[1-(6-chloro-pyridin-3-yl)-cyclopropanecarbonyl]-pyrrolidine-2-carboxylic acid (1-cyano-cyclopropyl)-amide] were 0.05 nM and 130 nM.
Take `C[C@H](Oc1ccc(S(=O)(=O)[C@@H]2C[C@@H](C(=O)NC3(C#N)CC3)N(C(=O)C3(c4ccc(Cl)nc4)CC3)C2)c(Cl)c1)C(F)(F)F` [Example 381, (2S,4R)-1-[1-(6-Chloro-pyridin-3-yl)-cyclopropanecarbonyl]-4-[2-chloro-4-((S)-2,2,2-trifluoro-1-methyl-ethoxy)-benzenesulfonyl]-pyrrolidine-2-carboxylic acid (1-cyano-cyclopropyl)-amide]: the figures for the IC50 on Cathepsin S and on Cat L were 0.295 nM and 102 nM, respectively.
